# According to PubChem BioAssay AID2060494 (Molecular Pharmacology Branch, DTP, NCI, 2025):
# System: 435261-313-R-J1-PDC complex spheroid viability
# Assay: Anticancer human tumor 435261-313-R-J1-PDC patient-derived colon adenocarcinoma cell line growth inhibition [GQUAD]
# Conditions: for IC50: curve of first compound; for viability, T/C: stronger effect = lower value
# Summary of the method: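 Tumor cells were grown as complex spheroids with HUVEC endothelial cells and mesenchymal stem cells as stroma. G-quadruplex stabilizers were combined with targeted agents over half-log dilutions from near the clinical Cmax, or from 10 microM.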
# 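Further: spheroids exposed to the agents for seven days before readout.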
# 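Wherever viability, T/C is given: percent of vehicle control viability with DMSO wells as 100%.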
compound,measurement,setting,value
Cn1ncnc1[C@H]1c2n[nH]c(=O)c3cc(F)cc(c23)N[C@@H]1c1ccc(F)cc1 + CN(C)c1ccc(Nc2c3ccc(NC(=O)CCN4CCCC4)cc3nc3cc(NC(=O)CCN4CCCC4)ccc23)cc1,IC50,second compound 0.0316 µM,> 316 nM
same,IC50,second compound 0.1 µM,> 316 nM
same,IC50,second compound 0.316 µM,> 316 nM
same,IC50,second compound 1 µM,> 316 nM
same,IC50,second compound 3.16 µM,> 316 nM
same,IC50,second compound 10 µM,< 0.999 nM
same,"viability, T/C","second compound 0.0316 µM, first compound 0.000999 µM",86.2%
same,"viability, T/C","second compound 0.0316 µM, first compound 0.00316 µM",92.3%
same,"viability, T/C","second compound 0.0316 µM, first compound 0.00999 µM",85.7%
same,"viability, T/C","second compound 0.0316 µM, first compound 0.0316 µM",78.1%
same,"viability, T/C","second compound 0.0316 µM, first compound 0.0999 µM",74.2%
same,"viability, T/C","second compound 0.0316 µM, first compound 0.316 µM",74.6%
same,"viability, T/C","second compound 0.1 µM, first compound 0.000999 µM",97.5%
same,"viability, T/C","second compound 0.1 µM, first compound 0.00316 µM",77.7%
same,"viability, T/C","second compound 0.1 µM, first compound 0.00999 µM",90.6%
same,"viability, T/C","second compound 0.1 µM, first compound 0.0316 µM",92.1%
same,"viability, T/C","second compound 0.1 µM, first compound 0.0999 µM",88.2%
same,"viability, T/C","second compound 0.1 µM, first compound 0.316 µM",76.7%
same,"viability, T/C","second compound 0.316 µM, first compound 0.000999 µM",97.5%
same,"viability, T/C","second compound 0.316 µM, first compound 0.00316 µM",73.2%
same,"viability, T/C","second compound 0.316 µM, first compound 0.00999 µM",84.1%
same,"viability, T/C","second compound 0.316 µM, first compound 0.0316 µM",79.1%
same,"viability, T/C","second compound 0.316 µM, first compound 0.0999 µM",70.7%
same,"viability, T/C","second compound 0.316 µM, first compound 0.316 µM",62.2%
same,"viability, T/C","second compound 1 µM, first compound 0.000999 µM",96.7%
same,"viability, T/C","second compound 1 µM, first compound 0.00316 µM",92.1%
same,"viability, T/C","second compound 1 µM, first compound 0.00999 µM",84.5%
same,"viability, T/C","second compound 1 µM, first compound 0.0316 µM",70.7%
same,"viability, T/C","second compound 1 µM, first compound 0.0999 µM",83.2%
same,"viability, T/C","second compound 1 µM, first compound 0.316 µM",68.9%
same,"viability, T/C","second compound 3.16 µM, first compound 0.000999 µM",70.4%
same,"viability, T/C","second compound 3.16 µM, first compound 0.00316 µM",77.2%
same,"viability, T/C","second compound 3.16 µM, first compound 0.00999 µM",56.1%
same,"viability, T/C","second compound 3.16 µM, first compound 0.0316 µM",62.4%
same,"viability, T/C","second compound 3.16 µM, first compound 0.0999 µM",78.9%
same,"viability, T/C","second compound 3.16 µM, first compound 0.316 µM",48.2%
same,"viability, T/C","second compound 10 µM, first compound 0.000999 µM",31.3%
same,"viability, T/C","second compound 10 µM, first compound 0.00316 µM",35.4%
same,"viability, T/C","second compound 10 µM, first compound 0.00999 µM",44.2%
same,"viability, T/C","second compound 10 µM, first compound 0.0316 µM",26.7%
same,"viability, T/C","second compound 10 µM, first compound 0.0999 µM",27.4%
same,"viability, T/C","second compound 10 µM, first compound 0.316 µM",35.3%
